The assay deals with T1, KV3.4 channels (Homo sapiens, UniProt Q03721).
T1 construct: expressed in transfected cells; host or cells: CHO cells, transient transfection with Lipofectamine 2000; cDNAs provided by Professor Goldstein, University of Chicago
T1 sequence (Q03721 1-635): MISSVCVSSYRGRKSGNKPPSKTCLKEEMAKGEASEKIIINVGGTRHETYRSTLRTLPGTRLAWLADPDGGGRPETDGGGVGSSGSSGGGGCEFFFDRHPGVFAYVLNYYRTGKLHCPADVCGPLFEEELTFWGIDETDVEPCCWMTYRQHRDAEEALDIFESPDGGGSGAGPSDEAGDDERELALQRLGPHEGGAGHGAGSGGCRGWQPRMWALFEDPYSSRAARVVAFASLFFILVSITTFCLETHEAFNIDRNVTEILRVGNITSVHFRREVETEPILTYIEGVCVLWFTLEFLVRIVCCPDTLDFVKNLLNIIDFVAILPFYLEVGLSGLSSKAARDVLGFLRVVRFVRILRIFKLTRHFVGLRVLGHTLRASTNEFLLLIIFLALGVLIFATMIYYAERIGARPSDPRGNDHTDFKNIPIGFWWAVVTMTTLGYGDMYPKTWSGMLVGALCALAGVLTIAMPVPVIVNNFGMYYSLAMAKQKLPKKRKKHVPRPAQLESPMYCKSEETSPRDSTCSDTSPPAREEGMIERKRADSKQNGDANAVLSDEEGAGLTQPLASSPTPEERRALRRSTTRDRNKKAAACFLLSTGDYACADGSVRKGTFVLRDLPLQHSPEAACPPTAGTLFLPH
T1 sequence (Q9Y6H6 1-103 partner): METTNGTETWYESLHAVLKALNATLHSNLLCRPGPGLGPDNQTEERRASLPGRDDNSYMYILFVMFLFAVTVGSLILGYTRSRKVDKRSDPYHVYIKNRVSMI
As to the kind of experiment: Whole-cell patch clamp of Kv3.4 currents in CHO cells transiently transfected with Kv3.4/MiRP2. Format: cell-based. As to conditions: for percentage of inhibition of Kv3.4 currents: acute application in extracellular solution, peak of depolarizing pulse +60 mV, [(C0-C1)/C0] x 100, mean of 6 to 10 cells, three sessions. How it is done:
KV3.4 and MiRP2 channel subunits were expressed in Chinese hamster ovary (CHO) cells by transient transfection. CHO cells were grown in 100 mm plastic Petri dishes in Dulbecco's Modified Eagle Medium containing 10% fetal bovine serum (FBS), non-essential amino acids (0.1 mm), penicillin (50 U/ml), and streptomycin (50 μg/ml) in a humidified atmosphere at 37°C with 5% CO2 (Miceli et al., [2015]). KV3.4 and MiRP2 cDNAs were kindly provided by the Professor Goldstein of the Department of Pediatrics and Institute for Molecular Pediatric Sciences, University of Chicago, USA. For electrophysiological experiments, cells were seeded on glass cover-slips (Glaswarenfabrik Karl Hecht KG, Sondheim, Germany) coated with poly-L-lysine (50 μg/mL) and transfected the next day with the appropriate cDNAs using Lipofectamine 2000 according to guidelines for transfection. We performed electrophysiological experiments 48 h after transfection.
Currents from CHO cells were recorded at room temperature 1-2 days after transfection. The extracellular solution contained the following (in mM): 138 NaCl, 5.4 KCl, 2 CaCl2, 1 MgCl2, 10 glucose and 10 HEPES, adjusted pH 7.4 with NaOH. The pipette solution contained (in mM) the following: 140 KCl, 2 MgCl2, 10 EGTA, 10 HEPES, 5 Mg-ATP, adjusted pH 7.4 with KOH (Miceli et al., [2015]). KV3.4 currents were measured by applying voltage steps from −100 mV to +60 mV from a holding potential of −80 mV (Abbott et al., [2001]). Moreover, the total outward K^+ currents were recorded in NGF-differentiated PC-12 cells using the extracellular solution contained the following (in mM): 150 NaCl, 5.4 KCl, 3 CaCl2, 1 MgCl2, 10 HEPES, adjusted pH 7.4 with NaOH. The pipette solution contained the following (in mM): 140 KCl, 2 MgCl2, 10 HEPES, 10 glucose, 10 EGTA, and 1 Mg-ATP adjusted at pH 7.4 with KOH (Diochot et al., [1998]). All experiments were performed in the presence of 50 nM tetrodotoxin (TTX) and 10 μ M nimodipine in the extracellular solution. To discriminate K^+ current components appropriate electrophysiological protocols were used (Pannaccione et al., [2007]). Steady-state activation and inactivation properties were measured by using appropriate protocols (Pannaccione et al., [2005]). Capacitive currents were elicited by 5-mV depolarizing pulses from −80 mV and acquired at a sampling rate of 50 kHz. The capacitance of the membrane was calculated according to the following equation: Cm = τc·Io/ΔEm (1-I∞/Io), where Cm is membrane capacitance, τc is the time constant of the membrane capacitance, Io is the maximum capacitance current value, ΔEm is the amplitude of the voltage step, and I∞ is the amplitude of the steady-state current. K^+ currents were recorded by patch-clamp technique in CHO and NGF-differentiated PC-12 cells using a commercially available amplifier (Axopatch 200B, Molecular Devices) and Digidata 1322A interface (Molecular Devices, USA). The whole-cell configuration of the patch-clamp technique was adopted using glass micropipettes with a resistance of 2.5-5.0 MΩ. Data were acquired and analyzed using the pClamp software (version 9, Molecular Devices).
For the acute treatment, each peptide has been added in the extracellular solution. For each cell, we first recorded K^+ currents as previously described, in the absence of peptides. After that, we switched from the extracellular solution without BDS-I peptides to the extracellular solution containing the BDS-I peptide. In these conditions, we recorded K^+ currents until the steady-state was reached. This protocol has been performed to test the effect on KV3.4 currents of each BDS-I fragment as well as of BDS-I[1-8scr].
To identify the smallest BDS-I amino acid sequence able to block Kv3.4 activity, we evaluated the effect of the newly synthesized BDS-I fragments in CHO cells transiently transfected with Kv3.4/MiRP2, by patch clamp technique in whole cell configuration. […]
(The patch-clamp technique gives a direct electrical read-out from membranes.)

[1] abbreviates: peptide 100 nM, CHO cells transfected with Kv3.4/MiRP2.

Ends that are not written are not given here.

These results are taken from paper PMC6629785, “Synthesis and Pharmacological Evaluation of a Novel Peptide Based on Anemonia sulcata BDS-I Toxin as a New KV3.4 Inhibitor Exerting a Neuroprotective Effect Against Amyloid-β Peptide” (Frontiers in Chemistry, 2019).

By IC50 is commonly meant the point on the concentration scale where inhibition reaches its midpoint. The low end stands for greater potency, the high end for weaker potency.

For AAPAFASG [BDS-I[1-8]], where the note is “100 nM, Boltzmann fit”, the “effect on steady-state parameters for activation and inactivation of Kv3.4 currents” value is “did not modify”. In addition, the “time of peptide exposure at which steady-state of inhibition was reached” value (100 nM, currents at peak of repetitive (20 sec) depolarizing pulses (+60 mV)) was 150 s. Also, the “voltage dependence of Kv3.4 current inhibition (I-V relationship)” value (100 nM, peak current before and during application, pulses from +60 to −100 mV) was “not voltage-dependent”. This substance also registered an IC50 (CHO cells transiently transfected with KV3.4/MiRP2, inhibitory dose-response curve, % of inhibition normalized to controls) of 75 nM. Under setting [1], the “percentage of inhibition of Kv3.4 currents” value is reported as “more than 80%”.

As to H-GSAFAPAA-OH [BDS-I[1-8scr]], the “ability to inhibit Kv3.4 currents (in words)” value (peptide 100 nM, acute application, CHO cells transfected with Kv3.4/MiRP2, whole-cell patch clamp) was “not able to modify KV3.4 activity”.

Regarding blood depressing substance-I [BDS-I], the “percentage of inhibition of Kv3.4 currents” value under setting [1] is recorded as ~ 60%.
